From US20210045387A1, “COMPOSITIONS AND METHODS TO INHIBIT ARTHROPOD HOST-SEEKING BEHAVIOR” (The Rockefeller University, priority 2019, published 2021)

Key:
[1] = test system: NPY-like receptors in non-human organisms; test: Cell-based GCaMP6s assay of related NPY-like receptors from a variety of organisms; details: HEK cells, GCaMP6s readout, FIG. 2
Text: (§1) The six compounds were screened in vitro against the panel of all 49 known Ae. aegypti peptide receptors from both L3 and L5 genome annotations, as well as human NPY receptors. FIG. 2 illustrates the level of activation of related NPY-like receptors by Ae. aegypti NPYLR7 agonists in a variety of organisms in a cell-based assay. HEK cells were transfected with receptor cDNA, promiscuous Gα subunit, and GCaMP6s. Activation was read out as increase in GFP fluorescence and EC50 values were calculated on a 6 point dose-response curve (FIG. 2). The vertical axis of each box represents NPY-related receptors for each organism: for instance, Ae. aegypti has three receptors that were tested in this assay, while Ae. Albopictus has four. […] Albopictus. The horizontal axis indicates the compound tested. […] Compounds 6, 7, 2, 5, 1, and 9 were also tested.

[2] = test system: human NPY receptors; test: Cell-based GCaMP6s assay of human NPY receptor activation; details: HEK cells, GCaMP6s readout, FIG. 2
Text: as §1

[3] = test system: Female mosquitoes; test: Live host assay: blood-feeding on an anesthetized mouse (mark-release-recapture); format: in vivo, Ae. aegypti; details: 100 μM in saline fed two days prior
Text: Females from each feeding group were separately marked with one of three different paint powders using the “shake in a bag” technique (Verhulst et al., 2013), and all three of these groups were pooled and allowed to recover together in a cage. […] Females were scored for powder color to indicate treatment condition and for the presence of fresh blood in the midgut. Similar to the results in host-seeking assays, non-blood-fed and saline-fed females consumed fresh blood at high levels. In contrast, females that had fed on sheep blood two days prior rarely consumed fresh blood. […] (Compound designations shown as circled numbers.)

[4] = test system: Aedes albopictus NPY-like receptors; test: Cell-based GCaMP6s assay of Aedes albopictus NPY-like receptors; details: FIG. 2
Text: as §1
(§2) Aedes albopictus host-seeking in a miniport olfactometer two days after feeding the indicated meals (n=6-34, 15-25 females/trial) is shown in FIG. 5. Data are plotted as median with range.

[5] = test system: Aedes albopictus mosquitoes; test: Miniport olfactometer host-seeking assay in Aedes albopictus; format: in vivo; details: two days after feeding, FIG. 5
Text: as §2

SMILES	Activation of NPY-like receptors in non-human organisms [1]	Activation of human NPY receptors [2]	Blood-feeding on a live host (anesthetized mouse) ([3]; 15 minutes access to mouse)	Blood-feeding on a live host, NPYLR7 mutants ([3]; NPYLR7 mutant females)	Activation of Aedes albopictus NPY-like receptors in vitro [4]	Suppression of host-seeking in Aedes albopictus, miniport olfactometer [5]
COc1ccc2c(C)nc(NC(=N)N)nc2c1 [Compound 1]	activate many of the receptors in non-human organisms	none of these compounds activates any of the human receptors	very low levels of blood-feeding on a live host	resistant to this effect		
COc1ccc2nc(N)nc(C)c2c1 [Compound 2]	activate many of the receptors in non-human organisms	none of these compounds activates any of the human receptors				
CCc1nc(NC(=N)N)nc2cc(C)ccc12 [Compound 5]	activate many of the receptors in non-human organisms	none of these compounds activates any of the human receptors				
CC(C)(C)c1cnc(CSc2cnc(NC(=O)C3CCNCC3)s2)o1 [Compound 6]	activate many of the receptors in non-human organisms	none of these compounds activates any of the human receptors			activates Aedes albopictus NPY-like receptors in vitro	suppresses host-seeking in Aedes albopictus mosquitoes
COc1ccc(CC2c3cc(OC)c(OC)cc3CC[N+]2(C)CCC(=O)OCCCCCOC(=O)CC[N+]2(C)CCc3cc(OC)c(OC)cc3C2Cc2ccc(OC)c(OC)c2)cc1OC (centres unmarked) [Compound 9]	activate many of the receptors in non-human organisms	none of these compounds activates any of the human receptors				
